Laboratory results taken from patent US20240108637A1, “EPITE[…] AND/OR A STEROID SULFATASE INHIBITOR FOR USE IN TREATING OR IMPROVING AGE RELATED COGNITIVE IMPAIRMENT” (U[…] DE OLAVIDE, priority 2020, published 2024).
“Also recorded” adds a separate entry of the source.

Tested on: NL5901 strain expressing α-synuclein in muscle cells
Test: Parkinson's disease model: mobility of NL5901 strain
Format: in vivo, C. elegans
Details: 1 μg/ml
Source text: We have studied the anatomical location of sul-2 expression from an extrachromosomal array and in single-copy insertion transgenic strains. […] There is no detectable expression in the germline in any transgenic strains (FIG. 2n and FIG. 10, 11a-b). ASE neurons are responsible for the attractive response of Na+ and Cl−, among others. Defects in odour sensing affect longevity. Therefore, we tested the ability of sul-2 mutants to respond to Cl− or Na+ and found no differences compared to wild type animals (FIG. 11c-d). Furthermore, sul-2 mutation increases the longevity of daf-10(m79), a long-lived mutant defective in sensory cilia formation25 (FIG. 11e). […] Reduction of sul-2 improves aging associated diseases in C. elegans Aging is considered the main risk factor for the onset of neurodegenerative disorders like Parkinson, Huntington, or Alzheimer's diseases. These disorders are caused by the progressive decline of proteostasis, which results in protein aggregation that compromises cellular functions and finally causes cell death. Germline-deficient C. elegans delay the symptoms derived from the proteotoxicity of ectopically expressed human β-amyloid (βA). We tested if sul-2 mutations or STX64 treatment improves the symptoms of C. elegans models for neurodegenerative diseases.

In the case of `NS(=O)(=O)Oc1ccc2c3c(c(=O)oc2c1)CCCCC3` [STX64], the mobility with age is reported as “reduce mobility with age at a slower rate; also recorded: significantly improved mobility; also recorded: protective effect”.
